Data reported in patent US12084445B2, “Broad-spectrum carbapenems” (VenatoRx Pharmaceuticals, Inc., priority 2018, dated 2024).
Where two headings read alike, the source gives them in different places.

Columns and labels:
Type in all cases: cell-based
[1] = tested on: S. aureus ATCC 29213 (methicillin sensitive); test: broth microdilution MIC assay, S. aureus ATCC 29213; settings: Staphylococcus aureus, ATCC 29213 / MSSA; Table 3; S. aureus 29213 (MSSA); read-out: S. aureus 29213 (MSSA) MIC
How it was run: (§1)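 Growth inhibition was scored by eye after 16-20 h at 37 °C in Mueller-Hinton broth. Each well received 5×10^5 CFU/mL of log-phase culture plus compound from a 2-fold dilution series.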

[2] = tested on: S. aureus ATCC 33591 (methicillin-resistant); test: broth microdilution MIC assay, S. aureus ATCC 33591; settings: Staphylococcus aureus
How it was run: as §1

[3] = tested on: E. coli ATCC 25922 (wild-type/QC strain); test: broth microdilution MIC assay, E. coli ATCC 25922; settings: Escherichia coli, ATCC25922, E. coli 25922, read-out: E. coli 25922 MIC
How it was run: as §1

[4] = tested on: P. aeruginosa ATCC 27853 (wild-type/QC strain); test: broth microdilution MIC assay, P. aeruginosa ATCC 27853; settings: Pseudomonas aeruginosa, ATCC27853, P. aeruginosa 27853, read-out: P. aeruginosa 27853 MIC
How it was run: as §1

[5] = tested on: clinical isolate P. aeruginosa PA 8; test: broth microdilution MIC assay, P. aeruginosa PA 8; settings: Pseudomonas aeruginosa, P. aeruginosa PA8
How it was run: as §1

[6] = tested on: S. aureus USA 300; test: broth microdilution MIC assay, S. aureus USA 300; settings: Staphylococcus aureus; Table 4; S. aureus USA300; read-out: S. aureus USA300 MIC
How it was run: as §1

[7] = tested on: S. aureus USA400; test: broth microdilution MIC assay, S. aureus USA 400; settings: Staphylococcus aureus, Table 4
Procedure: (§2) To determine the ability of test compounds to potentiate the inhibition of the growth of bacterial strains, classic cell-based broth microdilution MIC assays were employed. MIC assays are performed according to CLSI methods except where otherwise noted (CLSI, 2011 and CLSI, 2009). The reference strains S. aureus ATCC 29213 (methicillin sensitive), S. aureus ATCC 33591 (methicillin-resistant), E. coli ATCC 25922 (wild-type/QC strain), P. aeruginosa ATCC 27853 (wild-type/QC strain), and the clinical isolate P. aeruginosa PA 8 were used to determine the ability of the exemplary carbapenem compounds to inhibit bacterial growth. An expanded panel of methicillin resistance S. aureus (MRSA) and Pseudomonas was also used to determine the ability of exemplary carbapenem compounds to inhibit bacterial growth across a broader representation of those species. To determine activity in MRSA and in addition to S. aureus ATCC 33591, S. aureus USA 300, USA 400 and USA 600, some of the most common clones found to cause human infection, were also used. To further gauge the impact on the carbapenem compounds due to various resistance mechanisms in Pseudomonas, the following strains were included: P. aeruginosa 35151 (hyper-permeable strain), P. aeruginosa AmexAB-OprM (an efflux pump knockout), and P. aeruginosa PA 3 (a clinical isolate of reduced carbapenem susceptibility). Briefly, cryo-preserved bacterial cultures of clinical strains are streaked for isolation on appropriate agar medium, in this case Mueller Hinton II agar. Following incubation to allow formation of colonies, these plates are sealed with parafilm and stored refrigerated for up to two weeks. For preparation of assay inocula and to ensure low variability, at least 5 colonies are picked from the agar plates with an inoculating loop and aseptically transferred to a culture tube containing 3 mL of Mueller-Hinton Broth (supplemented with divalent cations to required levels based on Manufacturers' specification). The broth culture is grown for 3-5 hours at 37° C. with shaking at 200 rpm. Meanwhile, 2-fold serial dilutions of test compounds are conducted in a 96 well plate with a final volume of 75 μL per well at 2-fold the final desired concentration. After the dilution plates are set up the growing cultures are then diluted in a cuvette containing MH II broth and the optical density is measured at 600 nm. Inocula are diluted such that 75 μL of this culture in Mueller-Hinton Broth results in a starting bacterial concentration of 5×10^5 CFU/mL when added to the dilution plates. The plates are incubated 16-20 hours at 37° C. The MIC is read visually as the lowest concentration well with no bacterial growth.
(§3) Representative results are shown in Tables 3, 4, and 5 where A represents an MIC>32 μg/mL, B represents an MIC between 8 and 32 μg/mL inclusive, C represents an MIC between 1 and 4 μg/mL inclusive, and D represents an MIC of <1 μg/mL. NT=Not Tested.

[8] = tested on: S. aureus USA600; test: broth microdilution MIC assay, S. aureus USA 600; settings: Staphylococcus aureus; Table 4; S. aureus USA600; read-out: S. aureus USA600 MIC
How it was run: as §1

[9] = tested on: P. aeruginosa 35151 (hyper-permeable strain); test: broth microdilution MIC assay, P. aeruginosa 35151; settings: Pseudomonas aeruginosa, read-out: P. aeruginosa 35151 MIC
How it was run: as §1

[10] = tested on: P. aeruginosa ΔmexAB-OprM (an efflux pump knockout); test: broth microdilution MIC assay, P. aeruginosa ΔmexAB-OprM; settings: Pseudomonas aeruginosa, 20 h, read-out: P. aeruginosa ΔmexAB-OprM MIC
How it was run: as §1

[11] = tested on: P. aeruginosa PA 3 (a clinical isolate of reduced carbapenem susceptibility); test: broth microdilution MIC assay, P. aeruginosa PA 3; settings: Pseudomonas aeruginosa; Table 5; P. aeruginosa PA3
Procedure: as §2, §3

[12] = ATCC33591, Table 4, S. aureus 33591, read-out: S. aureus 33591 MIC

Row | Compound | MIC [1] [µg/mL] | MIC ([2]; ATCC 33591 / MRSA, Table 3, S. aureus 33591 (MRSA), read-out: S. aureus 33591 (MRSA) MIC) [µg/mL] | MIC [2, 12] [µg/mL] | MIC ([3]; Table 3) [µg/mL] | MIC ([3]; Table 4) [µg/mL] | MIC ([4]; Table 3) [µg/mL] | MIC ([4]; Table 5) [µg/mL] | MIC ([5]; Table 3) [µg/mL] | MIC ([5]; Table 5) [µg/mL] | MIC [6] [µg/mL] | MIC [7] [µg/mL] | MIC [8] [µg/mL] | MIC [9] [µg/mL] | MIC [10] [µg/mL] | MIC [11] [µg/mL]
1 | C[C@@H](O)[C@H]1C(=O)N2C(C(=O)O)=C(S[C@@H]3CCN(CC4CCN(C(=N)N)CC4)C3)[C@H](C)[C@H]12 [Example 35, (4R,5S,6S)-3-(((R)-1-((1-carbamimidoylpiperidin-4-yl)methyl)pyrrolidin-3-yl)thio)-6-((R)-1-hydroxyethyl)-4-methyl-7-oxo-1-azabicyclo[3.2.0]hept-2-ene-2-carboxylic acid] | 1 to 4 | 1 to 4 | 1 to 4 | < 1 | < 1 | 1 to 4 | 1 to 4 | 1 to 4 | 1 to 4 | < 1 | 1 to 4 | < 1 | < 1 | < 1 | 8 to 32
2 | C[C@@H](O)[C@H]1C(=O)N2C(C(=O)O)=C(SC3CN(CC4CCNCC4)C3)[C@H](C)[C@H]12 [Example 42, (4R,5S,6S)-6-((R)-1-hydroxyethyl)-4-methyl-7-oxo-3-((1-(piperidin-4-ylmethyl)azetidin-3-yl)thio)-1-azabicyclo[3.2.0]hept-2-ene-2-carboxylic acid] | – | – | 1 to 4 | – | < 1 | – | 1 to 4 | – | 1 to 4 | 1 to 4 | 1 to 4 | 1 to 4 | < 1 | 1 to 4 | 8 to 32
3 | C[C@@H](O)[C@H]1C(=O)N2C(C(=O)O)=C(SC3CCN(CC4CCNCC4)CC3)[C@H](C)[C@H]12 [Example 44, (4R,5S,6S)-6-((R)-1-hydroxyethyl)-4-methyl-7-oxo-3-((1-(piperidin-4-ylmethyl)piperidin-4-yl)thio)-1-azabicyclo[3.2.0]hept-2-ene-2-carboxylic acid] | – | – | 8 to 32 | – | 1 to 4 | – | 8 to 32 | – | 8 to 32 | 1 to 4 | 1 to 4 | – | < 1 | 1 to 4 | 8 to 32
